In patent US7183317B2, “Compounds and methods to increase plasma HDL cholesterol levels and improve HDL functionality” (Atherogenics, Inc., priority 2004, dated 2007):
Where “and” joins values, the source holds several entries; their conditions need not be identical. Equal values may be shown once.

Columns and labels:
HepG2 cells [1] = assay: apoAI-HDL elevation cell-based screen (apoAI accumulation by ELISA); parameters: species or system human; settings: for increase of apoAI accumulation / circulating apoAI-HDL: 1 mM
Procedure: HepG2 cells were obtained from the American Type Culture Collection (Rockville, Md.). Fetal bovine serum (FBS) was purchased from Gibco Laboratories. Cells were cultured in minimum essential medium (MEM) containing 10% FBS, and 100 μg/mL of streptomycin, 100 unit/mL of penicillin, and 4 mM of glutamine (Gibco/BRL). Cells were grown for 2 days till they are 80% confluent in 6-well, or 12-well plates before studies. In all cases medium was changed every other day.
To measure apoAI, 96-well microtiter plates were coated with a 1:1000 diluted mixture of three monoclonal antibodies against human apoAI (A05, A17, and A44) for 2 h and incubated in succession with HDL3 (0 to 15 ng/well), sheep polyclonal anti-apoAI serum (Boehringer Mannheim), alkaline phosphatase-labeled rabbit anti-sheep (Cappel), and p-nitrophenyl phosphate (1 mg/mL in 10 mmol/L ethanolamine, 0.5 mmol/L MgCl2, pH 9.5), for 2, 1 and 1 h respectively at 37° C. The plates were washed three times between different incubations. The absorbance at 405 nm was determined by using a Bio-Rad model 550 microplate reader (Bio-Rad).
The effect of Compound A on apoAI-HDL elevation was measured using a cell-based screen assay. The hepatic model, HepG2 cells, was used to observe the accumulation of apoAI as a result of secretion and/or uptake of apoAI; both processes taking place in the liver. HepG2 cells were treated with compounds for 24 hours or 48 hours in DMEM containing 1% RSA. apoAI accumulation was measured by ELISA as described in Materials and Methods.

HepG2 cells [2] = assay: Uptake/delivery of 3[H] cholesteryl ester-HDL to HepG2 cells; format: cell-based, human; settings: 12.5 μM, 50 μg/ml 3[H] CE-HDL, 3.5 h, 37° C., vs 100% delivery without compound
Procedure: ^3[H]cholesteryl Hexadecyl Ether-labeled HDL was prepared as described by Rodrigueza et al. (Rodrigueza W. V. et al. (1999) J. Biol. Chem. 274:20344–20350). 40 μCi of ^3[H]hexadecyl ether (40–60 Ci/mmol, NEN life Sciences Products) were incubated with 5 mg of HDL3 and 240 mg of heat-inactivated lipoprotein-deficient plasma, 0.01% aprotinin in a polypropylene tube sealed with nitrogen gas for 40 h at 37° C. according to the method of Terpstra et al. ^3[H]-CE enriched HDL was re-isolated by flotation ultracentrifugation and dialyzed against phosphate-buffered saline (PBS). To perform CE uptake studies, HepG2 cells, seeded in 6 or 12 well plates were grown for 2 days till 80% confluent and, then treated with compounds in 1% RSA-DMEM medium for 24 h. The next day, cells were treated with 12.5 μM compounds and 50 μg/mL of ^3[H]-CE HDL for 3.5 h at 37° C. After incubation, cells were washed 4 times with PBS/BSA and 2 times with PBS, followed by addition of 0.1 N NAOH. Cells were collected, and radioactivity was measured in counts per minute and expressed as percent of ^3[H]-CE delivered to cells.
HepG2 cells were cultured as described above and incubated with 50 μg/ml of ^3[H] CE-HDL particles and compounds for 3.5 h at 37° C. […] CE delivery to HepG2 cells resulting from treatment with indicated compounds compared to a 100% delivery in the absence of any compound. […] CE, as also described by Jin et al. (Jin, F. et al. (1997) Atheroscler. Thromb Vasc Biol. 17: 2020–2028).

HDL holoprotein = assay: Hepatic clearance/uptake of HDL holoprotein; format: cell-based
Excerpt: The trichloroacetic-precipitable labeled apoAI-HDL in the conditioned medium represents degraded labeled apoAI-HDL. After washing and detaching, cells are centrifuged. Labeled apoAI-HDL in the cellular fraction represents internalized HDL holoprotein; whereas, label in the supernatant represents cell surface bound apoAI-HDL that has been dissociated. Increased amounts of labeled HDL in cells treated with compounds versus cells not treated with compounds indicates increased degradation, internalization, or binding to the cell surface. Compounds are selected which decrease the amount of apoAI-HDL label in the cellular fraction of the cells contacted with a test compound compared to the amount of label in the cellular fraction of the cells not contacted with the test compound. […] Label in the conditioned medium represents degraded labeled-HDL. After washing and detaching, cells are centrifuged. Label in the cellular fraction represents internalized HDL holoprotein; whereas, label in the supernatant represents cell surface bound apoAI-HDL that has been dissociated. Increased amounts of label in cells treated with compounds versus cells not treated with compounds indicates increased degradation, internalization, or binding of apoAI-HDL to the cell surface. […]

apoAI = apoAI synthesis; format: cell-based
[3] = tested on: hypercholesterolemic hamsters; format: in vivo; settings: two weeks; for percent lowering of HDLc / percent increase of HDL cholesterol: compared to untreated controls; for percent increase of HDL cholesterol: 150 mg/kg/d in chow
Excerpt: Male Golden Syrian hamsters weighing 110–120 g were obtained from Charles River Laboratories (Wilmington, Mass.). Hamsters were housed individually with wood chip bedding and soft nesting material with lights on a 6 A.M. and off at 6 p.m. Upon arrival the hamsters were acclimated for three days on standard rodent chow and water (Purina rodent chow 5001) ad libitum. Prior to dosing, the hamsters were made hypercholesterolemic by feeding them a powdered diet supplemented with 0.5% cholesterol and 10% coconut oil (Harlan Teklad diet #97235) for one week. Water was added to the powdered chow to form a paste and the chow paste rolled into balls with each animal receiving 20 g of chow paste per day in stainless steel bowls. Chow intake was recorded daily. Body weights were recorded after one week and at the end of the end of the study. Hamsters were distributed into treatment groups after the one-week pretreatment period such that each group had similar average body weights.
Compound A homogenized in methylcellulose/Tween-20 using a polytron PT2100 homogenizer (Brinkman) before adding it to the high cholesterol chow paste and administered as an admixture at the same time each morning for two weeks. At the end of the treatment period the hamsters were fasted in the late afternoon on the day prior to blood collection. Fasting was achieved by transferring the hamsters to clean cages and removing chow stored in cheek pouches. Hamsters were anesthetized with ketamine/rompun solution. When unresponsive to toe pinch and still respiring, blood was collected via cardiac puncture from which plasma was separated and frozen at −80° C.
Lipoproteins were isolated from whole plasma by Fast Phase Liquid Chromatography (FPLC). Cholesterol and triglyceride concentrations in the different lipoprotein fractions were determined by enzymatic methods using a CX-5 chemical analyzer and standard Beckman reagents.
A Dunnetts test was used to compare the experimental and control groups. P<0.05 was considered significant.
The effect of Compound A on HDLc levels was assessed using hypercholesterolemic hamsters. Male Golden Syrian hamsters were fed as described in Materials and Methods. Compound A homogenized as described above before adding it to the high cholesterol chow paste and administered as an admixture at the same time each morning for two weeks. At the end of the treatment period the hamsters were fasted in the late afternoon on the day prior to blood collection. Hamsters were anesthetized with ketamine/rompun solution. When unresponsive to toe pinch and still respiring, blood was collected via cardiac puncture from which plasma was separated and frozen at −80° C.
LDL cholesterol was not affected. Lipid profiles were obtained according to the method published by Lee, A. and coworkers (W. Innis-Whitehouse, X. Li, V. Brown and N. Lee., J. Lipid Res. 39, 679 (1998)).

SR-BI/II receptors = assay: 3[H] CE delivery to HepG2 cells with anti SR-BI/II antibody blocking; format: cell-based
Procedure: It was important to discern whether or not Compound A was acting through the SR-BI/II receptors to increase the delivery of cholesterol. HepG2 cells were incubated with anti-mouse SR-BI/II antibodies for 45 min. Compound A was then added, and the cells were incubated with 30 μg/ml of ^3[H] CE-HDL for 3.5 h at 37° C. Anti-mouse SR-BI/II antibodies (1.0 mg/mL) reduced delivery of ^3[H] CE by 76%, while Compound A increase the delivery of ^3[H] CE to HepG2 cells by 56%. […] CE to cells provoked by Compound A. Further the anti SR-BI/II antibodies decreased the delivery of ^3[H] CE from 156% to 28% (FIG. 4).

[4] = 12.5 μM, compared to control (absence of compounds)

## CC(C)(Sc1cc(C(C)(C)C)c(O)c(C(C)(C)C)c1)Sc1cc(C(C)(C)C)c(O)c(C(C)(C)C)c1 [Probucol, 4,4′-(isopropylidenedithio)bis(2,6-di-tert-butylphenol), reference compound]
HepG2 cells [1]; 12.5 μM, compared to control
  percent decrease of apoAI (apoAI-HDL) accumulation: 23%
HepG2 cells [2]
  percent increase of 3[H]CE delivery to HepG2 cells: 29%
HepG2 cells [2]; listed as probucol
  percent increase of 3[H]CE delivery to HepG2 cells: increased
HDL holoprotein
  HDL holoprotein uptake: reduced
apoAI
  effect on synthesis of apoAI (newly synthesized apoAI): reduced

## CC(C)(Sc1cc(C(C)(C)C)c(O)c(C(C)(C)C)c1)Sc1cc(C(C)(C)C)c(OC[C@H]2OC(O)[C@H](O)[C@@H](O)[C@@H]2O)c(C(C)(C)C)c1 (some centres unmarked) [Compound D]
[3]; 150 mg/kg/d
  percent lowering of HDLc: ~80%
HepG2 cells [1]; 12.5 μM, compared to control
  percent decrease of apoAI (apoAI-HDL) accumulation: about 10%

## CC1=C(/C=C/C(C)=C/C=C/C(C)=C/C(=O)O)C(C)(C)CCC1 [Retinoic acid, reference compound]
HepG2 cells [1]; 10 μM, positive control
  percent increase of apoAI accumulation: 53.6%

## CC(C)(Sc1cc(C(C)(C)C)c(O)c(C(C)(C)C)c1)Sc1cc(C(C)(C)C)c(OCCCCOS(=O)(=O)O)c(C(C)(C)C)c1 [B, Sulfuric acid, mono-(4-{2,6-di-tert-butyl-4-[1-(3,5-di-tert-butyl-4-hydroxy-phenyl-sulfanyl)-1-methylethylsulfanyl]-phenoxy}-butyl)ester]
HepG2 cells [1]; [4]
  percent increase of apoAI (apoAI-HDL) accumulation: ~30%

## CC(C)(Sc1cc(C(C)(C)C)c(O)c(C(C)(C)C)c1)Sc1cc(C(C)(C)C)c(OC[C@@H](O)[C@@H](O)[C@@H](O)C(=O)O)c(C(C)(C)C)c1 [Compound A, 5-[4-[1-[(3,5-bis(1,1-dimethylethyl)-4-hydroxyphenyl)thio]-1-methylethyl]thio-2,6-bis(1,1-dimethylethyl)phenoxy]-2(R),3(R),4(R)-trihydroxypentanoic acid]
[3]
  percent increase of HDL cholesterol: 30%
[3]; 150 mg/kg/d
  effect on LDL cholesterol: not affected
HepG2 cells [1]; [4]
  percent increase of apoAI (apoAI-HDL) accumulation: 122.5% and 122%
HepG2 cells [1]; 25 μM, compared to control
  percent increase of apoAI (apoAI-HDL) accumulation: 132.5% and 132%
HepG2 cells [2]
  percent increase of 3[H]CE delivery to HepG2 cells: 109% and 108%
SR-BI/II receptors; 30 μg/ml 3[H] CE-HDL, 3.5 h, 37° C., no antibody
  percent increase of 3[H]CE delivery to HepG2 cells: 56%
SR-BI/II receptors; Compound A in presence of anti SR-BI/II antibodies
  delivery of 3[H] CE, percent of control: 28%
SR-BI/II receptors; Compound A without antibodies
  delivery of 3[H] CE, percent of control: 156%

## CC(C)(Sc1cc(C(C)(C)C)c(O)c(C(C)(C)C)c1)Sc1cc(C(C)(C)C)c(OC[C@@H](O)[C@H](O)[C@H](O)[C@H](O)CO)c(C(C)(C)C)c1 [Compound E]
[3]; 150 mg/kg/d
  percent lowering of HDLc: ~40%
HepG2 cells [1]; 12.5 μM, compared to control
  percent decrease of apoAI (apoAI-HDL) accumulation: about 10%

## O=C(O)c1cccnc1 [Niacin, Nicotinic acid, reference compound]
HepG2 cells [1]
  increase of apoAI accumulation / circulating apoAI-HDL: increased
HepG2 cells [1]; listed as niacin
  increase of apoAI accumulation / circulating apoAI-HDL: 10%

## CC(C)(Sc1cc(C(C)(C)C)c(O)c(C(C)(C)C)c1)Sc1cc(C(C)(C)C)c(OCC(O)CNCC(=O)O)c(C(C)(C)C)c1 (centres unmarked) [Compound C, Glycine, N-[3-[4-[1-[[3,5-bis(1,1-dimethylethyl)-4-hydroxyphenyl]thio]-methylethyl]thio-2,6-bis(1,1-dimethylethyl)phenoxy]-2-hydroxypropyl]]
[3]
  percent increase of HDL cholesterol: 40%
HepG2 cells [1]; [4]
  percent increase of apoAI (apoAI-HDL) accumulation: ~15%
